Experimental data from ChEMBL document CHEMBL1201862, “PubChem BioAssay data set” (2004).
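48-hour exposure; five concentrations; linearly interpolated endpoints. GI50 = concentration required for 50% inhibition of growth.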 Calls of active or inactive are those of the source. Rule as the data show it: active = GI50 up to about 1.1 µM and inactive = higher.

Legend:
Test in all cases: inhibition of tumour cell growth, NCI panel, 48 h
TK-10 = tested on: TK-10
HL-60 = tested on: HL-60
MDA-MB-231 = tested on: MDA-MB-231
HT-29 = tested on: HT-29
EKVX = tested on: EKVX
HOP-62 = tested on: HOP-62
BT-549 = tested on: BT-549
NCI-H460 = tested on: NCI-H460
SN12C = tested on: SN12C
RPMI-8226 = tested on: RPMI-8226
SK-MEL-5 = tested on: SK-MEL-5
MCF7 = tested on: MCF7
OVCAR-8 = tested on: OVCAR-8
SK-MEL-28 = tested on: SK-MEL-28
CAKI-1 = tested on: CAKI-1
NCI-H23 = tested on: NCI-H23
A498 = tested on: A498
SF-268 = tested on: SF-268
MDA-MB-435 = tested on: MDA-MB-435
IGROV-1 = tested on: IGROV-1

Measured: GI50

COc1cccc(CCNc2c(C#N)c3n(c4ccccc4[n+]3C)c3ncccc23)c1
inactive: TK-10 21.2 µM | HL-60 1.79 µM | MDA-MB-231 4.52 µM | HT-29 1.41 µM | EKVX 17.3 µM | HOP-62 17.5 µM | BT-549 23.3 µM | NCI-H460 1.34 µM | SN12C 15.9 µM | RPMI-8226 2.71 µM | SK-MEL-5 14.6 µM | MCF7 1.52 µM | OVCAR-8 1.7 µM | SK-MEL-28 20.2 µM | CAKI-1 6.52 µM | NCI-H23 20.3 µM | A498 20.9 µM | SF-268 16.4 µM | MDA-MB-435 2.52 µM

C=C(C)[C@H]1C=C[C@@H](OC(C)=O)[C@@]2(COC(C)=O)[C@H](OC(=O)CCC)[C@H]3[C@@H](OC(C)=O)[C@@H](C)C[C@]3(O)C(=O)[C@@](C)(OC(C)=O)[C@H]12
inactive: TK-10 32.2 µM | HL-60 33.5 µM | MDA-MB-231 56.9 µM | HT-29 38.7 µM | EKVX 38.2 µM | BT-549 58.2 µM | NCI-H460 21.2 µM | SN12C 36 µM | RPMI-8226 30.3 µM | SK-MEL-5 34.7 µM | MCF7 42.3 µM | OVCAR-8 29.7 µM | SK-MEL-28 80 µM | CAKI-1 > 100 µM | NCI-H23 39.3 µM | A498 67 µM | IGROV-1 32.1 µM | SF-268 67 µM | MDA-MB-435 15.3 µM

O=C1CC=C2C3CC4N(CCC45c4ccccc4N1C25)C/C3=C\CO (stereo unspecified)
inactive: TK-10 > 100 µM | HL-60 > 100 µM | MDA-MB-231 > 100 µM | HT-29 > 100 µM | EKVX > 100 µM | BT-549 > 100 µM | NCI-H460 > 100 µM | SN12C > 100 µM | RPMI-8226 > 100 µM | SK-MEL-5 > 100 µM | MCF7 > 100 µM | OVCAR-8 > 100 µM | SK-MEL-28 > 100 µM | CAKI-1 > 100 µM | NCI-H23 > 100 µM | A498 > 100 µM | IGROV-1 > 100 µM | SF-268 > 100 µM | MDA-MB-435 > 100 µM

O=c1[nH]c(Br)nc2[nH]nnc12
inactive: TK-10 54.6 µM | HL-60 5.52 µM | MDA-MB-231 34.7 µM | HT-29 > 100 µM | EKVX 70.1 µM | HOP-62 17.7 µM | BT-549 18.1 µM | NCI-H460 > 100 µM | SN12C 32.4 µM | RPMI-8226 17.9 µM | SK-MEL-5 68.9 µM | MCF7 74.1 µM | OVCAR-8 8.79 µM | CAKI-1 7.08 µM | NCI-H23 > 100 µM | A498 > 100 µM | IGROV-1 > 100 µM | SF-268 11 µM | MDA-MB-435 19.3 µM
